Measurements published in patent publication US20100003217A1, “Compounds and Pharmaceutical Compositions for the Treatment of Viral Infections” (priority 2008, published 2010).
Several values for one entry are separate records, joined by “and”; a condition that tells them apart may be missing. Identical values can stand only once. One block for each molecule: values may come before it.

Columns and labels:
[1] = Metabolite profile in rat urine; assay type: in vivo, male Sprague-Dawley rats; details: for % AD (percent of administered dose) / % HPLC (percent of HPLC peak area in the sample extract): group 1C (IV dose) pooled urine; for % of total urinary excretion / Total % AD: group 1C (IV dose) urine; for Total % AD: total of all collections
Experimental: Pooled urine samples were prepared for Groups 1C and 2C by mixing a fixed percent of the total volume for all four animals from the selected time points. For Group 1C, samples of the 1-, 2-, 6-, and 24-h collection intervals were pooled. For Group 2C, a pool of samples from all four animals was prepared for the 24 h collection intervals only. For 1-, 2-, and 6 h collection intervals, a urine sample of a single animal of Group 2A or 2B was used for analysis. All samples were brought to room temperature and vortexed briefly. The samples were diluted as necessary (2- to 20-fold) with appropriate aqueous mobile phase for the selected HPLC method. The pooled and diluted samples from the 24 h collection interval were centrifuged at 2040×g for 10 minutes. All other samples were analyzed without centrifugation. HPLC method 1 was used for HPLC profiling. Selected samples were analyzed by HPLC method 2 for comparison with the metabolite profile generated by microsomal and hepatocyte incubations (Examples 14 and 15) and with the metabolite profile of liver extracts.
Percent of the administered dose (% AD) for parent drug and each metabolite at each collection period=(% of the total radioactivity in the sample attributed to the metabolite)*(total radioactivity expressed as % of the administered dose, recovered during the corresponding collection period).
HPLC analyses of pooled urine samples of all time points were conducted for Group 1C. Metabolites R1, R2, R3, R4, R5, R6, R7 and R8 were characterized based on retention time.
For the PO dose group, a pooled urine sample from the 24-h collection time was analyzed. For 1-, 2-, and 6-h collection times, the majority of the samples had been used for radioanalysis. The remaining samples were insufficient for proportional pooling. Therefore, single animal samples of […] groups were used for HPLC profiling. Metabolites R^1, R^2, R^3, R^4, R^5, R^6, R^7 and R^8 were characterized based on retention time.
Table 50 contains data from single animal samples and pooled samples. To estimate overall distribution of urinary metabolites, it was assumed that the profile from a single animal is reflective of the overall average metabolite profile. Therefore, HPLC distribution data from single animals was used to calculate the percentage of administered dose excreted as various metabolites during the 1-, 2-, and 6-h collection intervals. Metabolites R1, R2, R3, R4, R5, R6, R7 and R8 were characterized based on retention time.

[2] = Rat plasma pharmacokinetics of total radioactivity after [^14C]-Compound 1; assay type: in vivo, male Sprague-Dawley rats; details: for Plasma total radioactivity concentration, Mean: group mean; for Plasma total radioactivity concentration: individual rats; for AUC0-24 of plasma total radioactivity: from average concentrations
Experimental: A preliminary rat metabolism study was conducted with radiolabeled Compound 1. The compound was labeled with [^14C] in the C-8 position of the guanine moiety. The objectives of the study were to determine, 1) the plasma pharmacokinetics of total radioactivity, 2) the time-course of total radioactivity and the amount of 2′-C-methyl guanosine-5′-TP in liver, 3) the major route of excretion, and 4) the metabolic profile in excreta, liver, and plasma.
Isotopically diluted [^14C]-Compound 1 was administered intravenously to male Sprague-Dawley rats at 50 mg/kg or by oral gavage at 100 mg/kg.
The plasma concentration-time data for total radioactivity was analyzed using Microsoft® Office Excel 2003 to obtain the area under the concentration-time curve (AUC). AUC0-24 (area under the concentration-time curve from 0 to 24 h after dosing) was calculated using the linear trapezoidal rule and nominal sampling times. For the IV dose group, concentration at time zero was extrapolated from the concentration data for the first two time points. The maximum (peak) plasma concentrations (Cmax) and the time to peak concentrations (tmax) were the observed values. Descriptive statistics were prepared in Excel.
Radioanalyses of plasma samples were conducted. The plasma concentration data for total radioactivity expressed as μg equivalents/mL are summarized below: […]

% AD (percent of administered dose) ([1]; 1 h collection): 0.05 % AD
% HPLC (percent of HPLC peak area in the sample extract) ([1]; 1 h collection): 0.24%
% AD (percent of administered dose) ([1]; 2 h collection): 0.05 % AD
% HPLC (percent of HPLC peak area in the sample extract) ([1]; 2 h collection): 1.01%
% AD (percent of administered dose) ([1]; 6 h collection): 0.01 % AD
% HPLC (percent of HPLC peak area in the sample extract) ([1]; 6 h collection): 0.37%
% of total urinary excretion [1]: 0.25%
Total % AD [1]: 0.12 % AD
SMILES: CC(C)(CO)C(=O)SCCOP(N)(=O)OC[C@H]1O[C@@H](n2cnc3c(=O)[nH]c(N)nc32)[C@](C)(O)[C@@H]1O (single isomer, unassigned; diastereomer 1) [Compd 3 Diastereomer 1]

% AD (percent of administered dose) ([1]; 1 h collection): 0.23 % AD
% HPLC (percent of HPLC peak area in the sample extract) ([1]; 1 h collection): 1.00%
% AD (percent of administered dose) ([1]; 2 h collection): 0.14 % AD
% HPLC (percent of HPLC peak area in the sample extract) ([1]; 2 h collection): 2.69%
% AD (percent of administered dose) ([1]; 6 h collection): 0.03 % AD
% HPLC (percent of HPLC peak area in the sample extract) ([1]; 6 h collection): 1.19%
% of total urinary excretion [1]: 0.84%
Total % AD [1]: 0.39 % AD
SMILES: CC(C)(CO)C(=O)SCCOP(N)(=O)OC[C@H]1O[C@@H](n2cnc3c(=O)[nH]c(N)nc32)[C@](C)(O)[C@@H]1O (single isomer, unassigned; diastereomer 2) [Compd 3 Diastereomer 2]

SMILES: CC(C)(CO)C(=O)SCCOP(=O)(NCc1ccccc1)OC[C@H]1O[C@@H](n2cnc3c(=O)[nH]c(N)nc32)[C@](C)(O)[C@@H]1O (stereo partly shown) [[^14C] Compound 1]
Plasma total radioactivity concentration, Mean ([2]; IV 50 mg/kg, 0 h (pre-dose)): 0.000 μg Equivalents/mL
Plasma total radioactivity concentration, Mean ([2]; IV 50 mg/kg, 0.083 h): 43.692 μg Equivalents/mL
Plasma total radioactivity concentration, Mean ([2]; IV 50 mg/kg, 0.25 h): 9.195 μg Equivalents/mL
Plasma total radioactivity concentration, Mean ([2]; IV 50 mg/kg, 0.5 h): 4.311 μg Equivalents/mL
Plasma total radioactivity concentration, Mean ([2]; IV 50 mg/kg, 0.75 h): 1.835 μg Equivalents/mL
Plasma total radioactivity concentration, Mean ([2]; IV 50 mg/kg, 1 h): 1.399 μg Equivalents/mL
Plasma total radioactivity concentration, Mean ([2]; IV 50 mg/kg, 2 h): 2.175 μg Equivalents/mL
Plasma total radioactivity concentration, Mean ([2]; IV 50 mg/kg, 4 h): 0.799 μg Equivalents/mL
Plasma total radioactivity concentration, Mean ([2]; IV 50 mg/kg, 6 h): 2.652 μg Equivalents/mL
Plasma total radioactivity concentration, Mean ([2]; IV 50 mg/kg, 10 h): 0.605 μg Equivalents/mL
Plasma total radioactivity concentration, Mean ([2]; IV 50 mg/kg, 24 h): 0.570 μg Equivalents/mL
Plasma total radioactivity concentration ([2]; IV 50 mg/kg, Group 1A, 0.25 h, 50 mg/kg): 10.883 μg Equivalents/mL and 9.006 μg Equivalents/mL and 7.913 μg Equivalents/mL and 8.978 μg Equivalents/mL
Plasma total radioactivity concentration ([2]; IV 50 mg/kg, Group 1A, 1 h, 50 mg/kg): 1.371 μg Equivalents/mL and 1.358 μg Equivalents/mL and 1.600 μg Equivalents/mL and 1.267 μg Equivalents/mL
Plasma total radioactivity concentration ([2]; IV 50 mg/kg, Group 1A, 2 h, 50 mg/kg): 2.202 μg Equivalents/mL and 1.861 μg Equivalents/mL and 2.545 μg Equivalents/mL and 2.092 μg Equivalents/mL
Plasma total radioactivity concentration ([2]; IV 50 mg/kg, Group 1B, 0 h (pre-dose)): 0.000 μg Equivalents/mL
Plasma total radioactivity concentration ([2]; IV 50 mg/kg, Group 1B, 0.75 h, 50 mg/kg): 1.576 μg Equivalents/mL and 1.600 μg Equivalents/mL and 1.710 μg Equivalents/mL and 2.454 μg Equivalents/mL
Plasma total radioactivity concentration ([2]; IV 50 mg/kg, Group 1B, 4 h, 50 mg/kg): 0.755 μg Equivalents/mL and 0.713 μg Equivalents/mL and 0.938 μg Equivalents/mL and 0.790 μg Equivalents/mL
Plasma total radioactivity concentration ([2]; IV 50 mg/kg, Group 1B, 6 h, 50 mg/kg): 2.376 μg Equivalents/mL and 2.233 μg Equivalents/mL and 2.160 μg Equivalents/mL and 3.837 μg Equivalents/mL
Plasma total radioactivity concentration ([2]; IV 50 mg/kg, Group 1C, 0.083 h, 50 mg/kg): 50.653 μg Equivalents/mL and 45.178 μg Equivalents/mL and 35.246 μg Equivalents/mL and 37.600 μg Equivalents/mL
Plasma total radioactivity concentration ([2]; IV 50 mg/kg, Group 1C, 0.5 h, 50 mg/kg): 4.824 μg Equivalents/mL and 4.036 μg Equivalents/mL and 4.072 μg Equivalents/mL and 3.857 μg Equivalents/mL
Plasma total radioactivity concentration ([2]; IV 50 mg/kg, Group 1C, 10 h, 50 mg/kg): 0.566 μg Equivalents/mL and 0.675 μg Equivalents/mL and 0.573 μg Equivalents/mL and 0.562 μg Equivalents/mL
Plasma total radioactivity concentration ([2]; IV 50 mg/kg, Group 1C, 24 h, 50 mg/kg): 0.515 μg Equivalents/mL and 0.759 μg Equivalents/mL and 0.553 μg Equivalents/mL and 0.453 μg Equivalents/mL
AUC0-24 of plasma total radioactivity ([2]; IV 50 mg/kg): 36.000 μg equivalents · h/mL
Plasma total radioactivity concentration, Mean ([2]; PO 100 mg/kg, 0 h (pre-dose)): 0.000 μg Equivalents/mL
Plasma total radioactivity concentration, Mean ([2]; PO 100 mg/kg, 0.083 h): 0.283 μg Equivalents/mL
Plasma total radioactivity concentration, Mean ([2]; PO 100 mg/kg, 0.25 h): 0.346 μg Equivalents/mL
Plasma total radioactivity concentration, Mean ([2]; PO 100 mg/kg, 0.5 h): 0.316 μg Equivalents/mL
Plasma total radioactivity concentration, Mean ([2]; PO 100 mg/kg, 0.75 h): 0.315 μg Equivalents/mL
Plasma total radioactivity concentration, Mean ([2]; PO 100 mg/kg, 4 h): 0.625 μg Equivalents/mL
Plasma total radioactivity concentration, Mean ([2]; PO 100 mg/kg, 6 h): 1.331 μg Equivalents/mL
Plasma total radioactivity concentration, Mean ([2]; PO 100 mg/kg, 10 h): 0.622 μg Equivalents/mL
Plasma total radioactivity concentration, Mean ([2]; PO 100 mg/kg, 24 h): 0.399 μg Equivalents/mL
Plasma total radioactivity concentration ([2]; PO 100 mg/kg, Group 2A, 0.25 h, 100 mg/kg): 0.216 μg Equivalents/mL and 0.433 μg Equivalents/mL and 0.474 μg Equivalents/mL and 0.260 μg Equivalents/mL
Plasma total radioactivity concentration ([2]; PO 100 mg/kg, Group 2B, 0 h (pre-dose)): 0.000 μg Equivalents/mL
Plasma total radioactivity concentration ([2]; PO 100 mg/kg, Group 2B, 0.75 h, 100 mg/kg): 0.346 μg Equivalents/mL and 0.327 μg Equivalents/mL and 0.331 μg Equivalents/mL and 0.256 μg Equivalents/mL
Plasma total radioactivity concentration ([2]; PO 100 mg/kg, Group 2B, 4 h, 100 mg/kg): 0.578 μg Equivalents/mL and 0.618 μg Equivalents/mL and 0.675 μg Equivalents/mL and 0.630 μg Equivalents/mL
Plasma total radioactivity concentration ([2]; PO 100 mg/kg, Group 2B, 6 h, 100 mg/kg): 1.157 μg Equivalents/mL and 1.163 μg Equivalents/mL and 1.522 μg Equivalents/mL and 1.480 μg Equivalents/mL
Plasma total radioactivity concentration ([2]; PO 100 mg/kg, Group 2C, 0.083 h, 100 mg/kg): 0.228 μg Equivalents/mL (2×) and 0.394 μg Equivalents/mL and 0.596 μg Equivalents/mL
Plasma total radioactivity concentration ([2]; PO 100 mg/kg, Group 2C, 0.5 h, 100 mg/kg): 0.236 μg Equivalents/mL and 0.335 μg Equivalents/mL and 0.378 μg Equivalents/mL and 0.408 μg Equivalents/mL
Plasma total radioactivity concentration ([2]; PO 100 mg/kg, Group 2C, 10 h, 100 mg/kg): 0.806 μg Equivalents/mL and 0.555 μg Equivalents/mL and 0.506 μg Equivalents/mL and 0.511 μg Equivalents/mL
Plasma total radioactivity concentration ([2]; PO 100 mg/kg, Group 2C, 24 h, 100 mg/kg): 0.450 μg Equivalents/mL and 0.303 μg Equivalents/mL and 0.458 μg Equivalents/mL and 0.384 μg Equivalents/mL
AUC0-24 of plasma total radioactivity ([2]; PO 100 mg/kg): 15.445 μg equivalents · h/mL
